Results: patent US9187470B2, “Anti-mucus drugs and uses therefor” (Washington University, priority 2012, dated 2015)
Read-outs that look alike come from different tables or passages of the source.

What was measured:
[1] = target: T1, MAPK13 (Homo sapiens (Human), UniProt O15264); assay: MAPK inhibitor assay: immobilized metal affinity polarization (IMAP) assay with activated MAPK13; format: biochemical; settings: for MAPK13 inhibitory activity (in words): IMAP assay, FIG. 6f
Method: MAPK inhibitor assay. The MAPK13 blocking activity of test compounds was determined using an immobilized metal affinity polarization (IMAP) assay containing activated MAPK13, FITC-labeled substrate, and test compound. Full-length 6-His-tagged MAPK13 and constitutively active GST-MKK6 were prepared as described below. Activated MAPK13 was generated in 50 mM Hepes, 10 mM MgCl2 and 1 mM DTT, containing 1 μM MAPK13, 2 μM MKK6 and 50 μM ATP for 1 h at 25° C. MKK6 was removed by incubation with glutathione SEPHAROSE 4B beads (GE Healthcare Biosciences). […] IMAP assays were performed in 96-well non-treated half-area black plates or 384-well black plates (Corning Inc., Corning, N.Y.) in a final reaction volume of 20 μl using the linear phase of the rate kinetics. […] The reaction proceeded for 20 min at 25° C. in 10 mM Tris-HCl, 10 mM MgCl2, 0.1% BSA, 0.05% NaN3, 1 mM DT, pH 7.2 after which 60 μl of tri-valent metal nanoparticles containing IMAP binding reagent (Molecular Devices, Sunnyvale, Calif.) was added for 80 min at 25° C. The IMAP binding reagent was optimized at 1:600 (vol/vol) based on the number of acidic residues in the peptide substrate. Fluorescence polarization was measured with a Biotek Synergy 4 multimode plate reader (Biotek, Winooski, Vt.) with excitation at 485 nm and emission at 528 nm. The IC50 values for each compound were determined from the compound concentration versus fluorescence polarization (mP) plot using nonlinear curve fitting with GraphPad Prism software (Graphpad Software, La Jolla, Calif.).
MAPK purification for biochemical assays and crystallization. Full-length human MAPK13 (1-365) and MAPK13 crystallization construct (1-352) were cloned into pET28a as N-terminal 6-His-tagged constructs. […] A pET28a construct of λ-phosphatase was a gift from Dima Klenchin (University of Wisconsin, Madison, Wis.). All constructs were confirmed by sequencing and transformed into Rosetta2 (DE3) E. coli (EMD Millipore, Billerica, Mass.) and expressed as soluble proteins that were purified using the specific affinity tags followed by gel filtration chromatography. […] The final purified MAPK13 for crystallization was stored in buffer containing 20 mM Hepes pH 7.5, 150 mM NaCl, 10% glycerol, and 1 mM DTT.
In concert with this structural analysis, analogs for MAPK13 inhibitory activity were tested using an immobilized metal affinity polarization (IMAP) assay that detected fluorescence polarization as a function of remaining MAPK13 activity.

[2] = target: T1, MAPK13; assay: MAPK13/small molecule binding assay (bio-layer interferometry, Octet); settings: for t1/2: complex half-life determined using BLI; for slow-off binding kinetics: FIG. 6d,e
Excerpt: MAPK purification for biochemical assays and crystallization. Full-length human MAPK13 (1-365) and MAPK13 crystallization construct (1-352) were cloned into pET28a as N-terminal 6-His-tagged constructs. A constitutively active mutant MKK6-GST fusion construct (GST-MKK6 Glu) was a gift from Peiqing Sun (Scripps, La Jolla, Calif.). A pET28a construct of λ-phosphatase was a gift from Dima Klenchin (University of Wisconsin, Madison, Wis.). All constructs were confirmed by sequencing and transformed into Rosetta2 (DE3) E. coli (EMD Millipore, Billerica, Mass.) and expressed as soluble proteins that were purified using the specific affinity tags followed by gel filtration chromatography. […] All buffers used during purification (lysis, column, and storage) of MAPK13 required addition of 10% glycerol and 1-5 mM reducing agent (either β-mercaptoethanol or DTT) to prevent precipitation of the recombinant protein. The final purified MAPK13 for crystallization was stored in buffer containing 20 mM Hepes pH 7.5, 150 mM NaCl, 10% glycerol, and 1 mM DTT.
MAPK13/small molecule binding assay. Kinetics of MAPK13 binding to small molecules was assessed using bio-layer interferometry with an Octet (ForteBio, Menlo Park, Calif.). Super-streptavidin-coated biosensors from ForteBio were used to capture biotinylated MAPK13 onto the surface of the sensor. After reaching baseline, sensors were moved to association step containing 2500, 1250, 625, 312.5, or 156.3 nM inhibitor for 300 s and then dissociated for 300 s. Curves were corrected by a double-referencing technique using both biotin-coated pins dipped into the experimental wells and a buffer-only reference. The running buffer consisted of 10 mM Hepes pH 7.5, 150 mM NaCl, 0.05% Tween, and 5% DMSO. Half-lives were calculated from dissociation constants determined from global kinetic analysis.

[3] = test system: MUC5AC; assay: Doxycycline-induced MUC5AC mRNA and protein in NCI-H292-rtTA-hCLCA1 cells; format: cell-based, human; settings: doxycycline 7.5 μg/ml for 18 h
[4] = test system: MUC5AC; assay: IL-13-induced MUC5AC production in primary-culture human tracheal epithelial cells (qPCR, cell-based ELISA); settings: for IL-13-induced MUC5AC production: FIG. 6h
[5] = test system: CLCA1; assay: CLCA1 levels in IL-13-treated hTECs (qPCR); format: cell-based, human; settings: IL-13 50 ng/ml, up to 21 d air-liquid interface
[6] = lower part of Table 4, IMAP-based biochemical assay, read-out: MAPK13 IC50
[7] = upper part of Table 4, 16-point inhibitor concentration-response curves, unit inferred, read-out: IC50 (IC50 values for MAPK13 inhibition)
[8] = primary-culture human airway epithelial cells

T1 sequence (O15264 whole entry): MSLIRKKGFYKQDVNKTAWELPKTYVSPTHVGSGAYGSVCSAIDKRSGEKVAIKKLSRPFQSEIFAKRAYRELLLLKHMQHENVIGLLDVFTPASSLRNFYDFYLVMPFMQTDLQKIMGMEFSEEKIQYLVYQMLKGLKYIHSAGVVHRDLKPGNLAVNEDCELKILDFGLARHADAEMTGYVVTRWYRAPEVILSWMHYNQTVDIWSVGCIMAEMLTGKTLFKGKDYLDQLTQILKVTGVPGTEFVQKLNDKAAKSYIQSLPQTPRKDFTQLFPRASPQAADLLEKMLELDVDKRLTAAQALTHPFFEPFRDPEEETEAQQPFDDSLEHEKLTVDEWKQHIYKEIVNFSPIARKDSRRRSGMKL

| SMILES | MAPK13 inhibitory activity (in words) [1] | IC50 [1, 6] [nM] | t1/2 [2] [min] | IC50 [1, 7] [nM] | other results |
| --- | --- | --- | --- | --- | --- |
| Cn1c(NC[C@@H](N)Cc2ccccc2)nc(-c2ccncc2)c(-c2ccc3ccccc3c2)c1=O [AMG-548, reference compound] | weak inhibitory activity | – | – | – | – |
| Cc1ccc(-n2nc(C(C)(C)C)cc2NC(=O)Nc2ncc(CCN3CCOCC3)s2)cc1 [Analog 89, 1-[5-tert-butyl-2-(p-tolyl)pyrazol-3-yl]-3-[5-(2-morpholinoethyl)thiazol-2-yl]urea] | – | 27.5 | 20 | – | – |
| Cc1ccc(-n2nc(C(C)(C)C)cc2NC(=O)Nc2ccc3c(c2)CN(C(=O)C2CCOCC2)C3)cc1 [Analog 115, 1-[5-tert-butyl-2-(p-tolyl)pyrazol-3-yl]-3-[2-(tetrahydropyran-4-carbonyl)isoindolin-5-yl]urea] | – | 8650 | 3.4 | – | Relative Dissociation kinetics ([2]; BLI): slow |
| Cc1cn(-c2cccc(C(=O)Nc3ccc(Oc4ccncc4)cc3)c2)cn1 [Analog 117, 3-(4-methylimidazol-1-yl)-N-[4-(4-pyridyloxy)phenyl]benzamide] | – | 10200 | 0.0467 | 15800 | MAPK13 Inhibition Biochemical Potency ([1]; class symbols +++, ++, +, ~, legend not given): ~; slow-off binding kinetics [2]: did not |
| O=C(Nc1ccc(Oc2ccncc2)cc1)c1ccnc(N2CCOCC2)c1 [Analog 124, 2-morpholino-N-[4-(4-pyridyloxy)phenyl]pyridine-4-carboxamide] | – | – | 0.02 | – | – |
| Cc1ccc(-n2nc(C(C)(C)C)cc2NC(=O)Nc2ccc(OCCN3CCOCC3)c3ccccc23)cc1 [BIRB-796, BIRB-796 (Doramapimod)] | – | – | – | – | doxycyline-induced MUC5AC mRNA and protein production [3]: inhibited; IL-13-induced MUC5AC gene expression ([4]; hTECs, IL-13 50 ng/ml, up to 21 d air-liquid interface): markedly suppressed; corresponding CLCA1 levels / CLCA1 gene expression [5]: without affecting |
| Cn1nc(C(C)(C)C)cc1NC(=O)Nc1ccc(Oc2ccncc2)cc1 [Compound 61] | most potent MAPK13 inhibition | 82.7 | 1.85 | 620 | IL-13-induced MUC5AC production [4, 8]: markedly suppressed; increase in complex half-life ([2]; DFG-out compound 61 compared with DFG-in compound 117 (FIG. 6E)): 40 fold; slow-off binding kinetics [2]: exhibited slow-off binding kinetics |
| Cc1ccc(-n2nc(C(C)(C)C)cc2NC(=O)Nc2ccc(Oc3ccncc3)cc2)cc1 [Compound 62] | most potent MAPK13 inhibition | – | – | 280 | IC50 ([4]; IL-13-induced, primary-culture human airway epithelial cells, read-out: IC50 for blockade of mucus production): < 10 nM; IL-13-induced MUC5AC production [4, 8]: markedly suppressed |
